Values quoted from earlier work as cited in patent publication US20080153788A1, “NOVEL COMPOSITION TO INCREASE MUSCLE STRENGTH” (ORAL DELIVERY TECHNOLOGIES, priority 2006, published 2008).

Tests used:
[1] = humans; prior-art description
[2] = for injection

Row | Compound | period over which concentration declines after the peak [1] | time to concentration peak after administration [1] | solubility in oily media [2]
1 | C[C@]12CC[C@H]3[C@@H](CCC4=CC(O)CC[C@@]43C)[C@@H]1CC[C@@H]2O (stereo partly drawn) [4-androstene-3,17β-diol] | 3 to 4 h | ≤ 90 min | –
2 | CCCCCCCCCCC(=O)O[C@H]1CC[C@H]2[C@H]3[C@H](CC[C@]12C)[C@H]1CCC(=O)C=C1C[C@H]3C [MENT undecanoate, (7α,17β)-7-methyl-17-[(1-α-oundecyl)oxy]estr-4en-3one] | – | – | good solubility
